Tests used:
[1] = test system: luciferase expression in the liver; test: Luciferase mRNA in vivo evaluation using lipid nanoparticle compositions; set-up: species or system mice; conditions: LNP with FLuc mRNA, tail vein injection, ng luciferase/g liver 4 hours after administration; for Liver Luc @ 0.3 mg/kg: 0.3 mg mRNA/kg; for Liver Luc @ 1.0 mg/kg: 1.0 mg mRNA/kg
Procedure: (§1) A lipid of structure (I), DSPC, cholesterol and PEG-lipid are solubilized in ethanol at a molar ratio of 50:10:38.5:1.5 or 47.5:10:40.7:1.8. Lipid nanoparticles (LNP) are prepared at a total lipid to mRNA weight ratio of approximately 10:1 to 40:1. Briefly, the mRNA is diluted to 0.2 mg/mL in 10 to 50 mM citrate buffer, pH 4 or 10 to 25 mM acetate buffer, pH 4. Syringe pumps are used to mix the ethanolic lipid solution with the mRNA aqueous solution at a ratio of about 1:5 to 1:3 (vol/vol) with total flow rates above 15 mL/min. The ethanol is then removed and the external buffer replaced with PBS by dialysis. Finally, the lipid nanoparticles are filtered through a 0.2 µm pore sterile filter.
Studies are performed in 6-8 week old female C57BL/6 mice (Charles River) 8-10 week old CD-1 (Harlan) mice (Charles River) according to guidelines established by an institutional animal care committee (ACC) and the Canadian Council on Animal Care (CCAC). Varying doses of mRNA-lipid nanoparticle are systemically administered by tail vein injection and animals euthanized at a specific time point (e.g., 4 hours) post-administration. Liver and spleen are collected in pre-weighed tubes, weights determined, immediately snap frozen in liquid nitrogen and stored at −80° C. until processing for analysis.
For liver, approximately 50 mg is dissected for analyses in a 2 mL FastPrep tubes (MP Biomedicals, Solon OH). ¼″ ceramic sphere (MP Biomedicals) is added to each tube and 500 μL of Glo Lysis Buffer—GLB (Promega, Madison WI) equilibrated to room temperature is added to liver tissue. Liver tissues are homogenized with the FastPrep24 instrument (MP Biomedicals) at 2×6.0 m/s for 15 seconds. Homogenate is incubated at room temperature for 5 minutes prior to a 1:4 dilution in GLB and assessed using SteadyGlo Luciferase assay system (Promega). Specifically, 50 μL of diluted tissue homogenate is reacted with 50 μL of SteadyGlo substrate, shaken for 10 seconds followed by 5 minute incubation and then quantitated using a CentroXS^3 LB 960 luminometer (Berthold Technologies, Germany). The amount of protein assayed is determined by using the BCA protein assay kit (Pierce, Rockford, IL). Relative luminescence units (RLU) are then normalized to total μg protein assayed. To convert RLU to ng luciferase a standard curve is generated with QuantiLum Recombinant Luciferase (Promega).
The FLuc mRNA (L-6107) from Trilink Biotechnologies will express a luciferase protein, originally isolated from the firefly, Photinus pyralis. FLuc is commonly used in mammalian cell culture to measure both gene expression and cell viability. It emits bioluminescence in the presence of the substrate, luciferin. This capped and polyadenylated mRNA is fully substituted with 5-methylcytidine and pseudouridine.
(§2) Representative compounds of the disclosure shown in Table 2 were formulated using the following molar ratio: 50% cationic lipid/10% distearoylphosphatidylcholine (DSPC)/38.5% Cholesterol/1.5% PEG lipid 2-[2-(ω-methoxy(polyethyleneglycol2000)ethoxy]-N,N-ditetradecyl acetamide) or 47.5% cationic lipid/10% DSPC/40.7% Cholesterol/1.8% PEG lipid. Relative activity was determined by measuring luciferase expression in the liver 4 hours following administration via tail vein injection as described in Example 1 or by measuring the amount of human IgG in mouse serum as described in example 2. The activity was compared at a dose of 1.0 or 0.5 or 0.3 mg mRNA/kg and expressed as ng luciferase/g liver measured 4 hours after administration, as described in Example 1 or as μg IgG/mL serum measured 24 hours after administration, as described in Example 2. Compound numbers in Table 2 refer to the compound numbers of Table 1.

[2] = Determination of pKa of formulated lipids (TNS fluorescence assay in lipid nanoparticles); assay type: physicochemical; conditions: lipid nanoparticles (compound/DSPC/cholesterol/PEG-lipid), lipid formulated in LNP (lipid/DSPC/cholesterol/PEG-lipid), pH at half-maximal intensity
Procedure, shortened: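 LNPs (compound/DSPC/cholesterol/PEG-lipid, 50/10/38.5/1.5 or 47.5:10:40.7:1.8 mol %) diluted to 24 μM lipid in HEPES/MES/ammonium acetate/NaCl buffers, pH 2.5–11, with 1 μM TNS. Fluorescence read at room temperature, ex 321/em 445 nm. pKa taken as pH of half-maximal intensity from sigmoidal fit.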

human IgG in mouse serum = test: Immunoglobulin G (IgG) mRNA in vivo evaluation using lipid nanoparticle compositions; set-up: species or system mice; conditions: LNP with IgG mRNA, tail vein injection, serum 24 hours after administration; for Serum IgG @ 0.3 mg/kg: 0.3 mg mRNA/kg; for Serum IgG @ 1.0 mg/kg: 1.0 mg mRNA/kg
Procedure: as §1
Studies are performed in 6-8 week old CD-1/ICR mice (Envigo) according to guidelines established by an institutional animal care committee (ACC) and the Canadian Council on Animal Care (CCAC). Varying doses of mRNA-lipid nanoparticle are systemically administered by tail vein injection and animals euthanized at a specific time point (e.g., 24 hours) post-administration. The whole blood is collected, and the serum subsequentially separated by centrifuging the tubes of the whole blood at 2000×g for 10 minutes at 4° C. and stored at −80° C. until use for analysis.
For immunoglobulin G (IgG) ELISA (Life Diagnostics Human IgG ELISA kit), the serum samples are diluted at 100 to 15000 folds with 1×diluent solution. 100 μL of diluted serum is dispensed into anti-human IgG coated 96-well plate in duplicate alongside human IgG standards and incubated in a plate shaker at 150 rpm at 25° C. for 45 minutes. The wells are washed 5 times with 1× wash solution using a plate washer (400 μL/well). 100 μL of HRP conjugate is added into each well and incubated in a plate shaker at the same condition above. The wells are washed 5 times again with 1× wash solution using a plate washer (400 μL/well). 100 μL of TMB reagent is added into each well and incubated in a plate shaker at the same condition above. The reaction is stopped by adding 100 μL of Stop solution to each well. The absorbance is read at 450 nm (A450) with a microplate reader. The amount of human IgG in mouse serum is determined by plotting A450 values for the assay standard against human IgG concentration.
as §2

pKa [2]	SMILES	Liver Luc @ 0.3 mg/kg [1]	Liver Luc @ 1.0 mg/kg [1]	Serum IgG @ 0.3 mg/kg (human IgG in mouse serum)	Serum IgG @ 1.0 mg/kg (human IgG in mouse serum)
6.54	CCCCCCCCCCN(CCCCCCCCCC)C(=O)CCCCCCCN(CCCCCO)CCCCCCCC(=O)N(CCCCCCCCCC)CCCCCCCCCC [Compound I-21, 8,8′-((5-hydroxypentyl)azanediyl)bis(N,N-didecyloctanamide)]	29492 ± 4887 ng/g	43216 ± 25636 ng/g	48.78 ± 6.88 µg/mL	220.38 ± 62.57 µg/mL
6.47	CCCCCCCCCCN(CCCCCCCCCC)C(=O)CCCCCCCN(CCO)CCCCCCCC(=O)N(CCCCCCCCCC)CCCCCCCCCC [Compound I-22, 8,8′-((2-hydroxyethyl)azanediyl)bis(N,N-didecyloctanamide)]	12829 ± 3326 ng/g	38933 ± 23162 ng/g	31.00 ± 9.33 µg/mL	99.12 ± 18.03 µg/mL
6.48	CCCCCCCCCCN(CCCCCCCCCC)C(=O)CCCCCCCN(CCCCO)CCCCCCCC(=O)N(CCCCCCCCCC)CCCCCCCCCC [Compound I-23, 8,8′-((4-hydroxybutyl)azanediyl)bis(N,N-didecyloctanamide)]	15876 ± 7588 ng/g	34202 ± 19178 ng/g	43.34 ± 7.70 µg/mL	103.91 ± 31.29 µg/mL
6.24	CCCCCCCCCCN(CCCCCCCCCC)C(=O)CCCCCCCN(CCCCCCO)CCCCCCCC(=O)N(CCCCCCCCCC)CCCCCCCCCC [Compound I-24, 8,8′-((6-hydroxyhexyl)azanediyl)bis(N,N-didecyloctanamide)]	9106 ± 1760 ng/g	38913 ± 14318 ng/g	27.46 ± 9.22 µg/mL	112.31 ± 14.51 µg/mL

Reference: patent publication US12129223B2, “Lipids for use in lipid nanoparticle formulations” (Acuitas Therapeutics, Inc., priority 2021, dated 2024)
